Experiment [1] concerns primary murine cancer cells constitutively expressing DnaK. The experiment is described as follows: cells. Particulars: Mus musculus, read-out: cell viability.
Experiment [2] has as its system HCT116 cells. As to the kind of experiment: cells. Particulars: Homo sapiens, HCT-116, 48 h, 48 h. The method, then:
(§1) FIG. 11. […] Parallel wells of untreated cells were used as negative control. Cell viability was assessed by using the trypan blue assay. Percentage of alive cells for each treatment are calculated as percentage using the untreated cell as reference. […] Statistical differences were tested using Student's t test. All statistical tests were two sided. p=***<0.001, **<0.01, *<0.05, ns=not significant.
(§2) FIG. 14. […] Parallel wells of untreated cells were used as negative control. Cell viability was assessed by using the trypan blue assay. Percentage of alive cells for each treatment are calculated as percentage using the untreated cell as reference. […] Statistical differences were tested using Student's t test. All statistical tests were two sided. p=*<0.05, **<0.01, ***<0.001.
(§3) To determine the effects of eM and eF-DnaKs on HCT116 and AGS cells lines treated with different anti-cancer drugs, cells were plated 200,000 cells/well in 6-wells plates. After 24 h, both eM-DnaK and eF-DnaK were added to the cultures at a concentration of 10 ug/ml. […] Parallel cultures of untreated cells were the negative controls. […] After 48 h of treatment with the anti-cancer drugs, cell monolayers were washed in PBS, trypsinized and cell viability was measured using the trypan blue assay. The trypan blue exclusion assay allows for a direct identification and enumeration of live (unstained) and dead (blue) cells in the given population.
(§4) More in detail, we pre-treated both exogenous DnaKs with ARV-1502 (25 μg/ml) before adding them to the culture of HCT116 or AGS cells. After 3 h of incubation the complex was added to the culture. After 24 h the cells were treated with the anti-cancer drugs and then subjected to count with trypan blue as previously described. Parallel cultures of cells treated with the drugs and DnaKs not complexed with ARV-1502 were used as control.

In the next experiment the test system is AGS cells. The experiment is described as follows: cells. Conditions: Homo sapiens, 48 h. The procedure: as §1, §2, §3, §4
For experiment [3], the system named is HCT116 cells infected with Mycoplasma. The experiment is described as follows: Cell viability of Mycoplasma-infected HCT116 cells (LIVE/DEAD kit). Conditions: 5FU or Nutlin-3, 48 hours. It is filed as cell-based, human. The procedure:
FIG. 2. DnaK negatively affects p53 activities and Mycoplasma infection reduces the effect of anti-cancer drugs. (A) DnaK reduces p53-associated activities in HCT116 cells. Levels of p53, p21, Bax and PUMA proteins were analyzed in control, vector and DnaK transfected cells at different time-points (2, 8 and 16 hours). Expression of DnaK was verified using the anti-V5 antibody. NT: not transfected; VT: vector transfected; DnaK: DnaK transfected; M: media; D: DMSO; N: Nutlin. β-act: β-actin. Band intensity was measured by densitometric analysis. Numbers above bands indicate fold increase above level of nutlin-treated DnaK-transfected cells, normalized for the levels of β-actin. (B) DnaK increases cell cycle progression. HCT116 cells were transfected with a DnaK-expressing vector and subsequently analyzed for cell cycle progression. Data were collected 16-24 hours after transfection. Results represent mean and standard deviations of 5 different experiments. […] Results are expressed as percent cell viability over control (uninfected cells in media alone were considered as 100%). Mean difference is shown. *=p<0.001—calculated using Poisson regression.
HCT116 cells (colon carcinoma cell line) were obtained from ATCC. […] In all experiments cell viability was calculated as a percentage relative to the control cultures. […]

In a further experiment the target is M. tuberculosis DnaK (Mycobacterium tuberculosis, UniProt P9WMJ9). Conditions: previously demonstrated; cited from earlier work.
The subject of experiment [4] is HCT116 cells. As to the kind of experiment: HCT116 cell viability (trypan blue) with cisplatin, exogenous DnaKs and DnaK inhibitor (Example 4). In kind it is cell-based, human.
Protocol: After 24 h, both eM-DnaK and eF-DnaK were added to the cultures at a concentration of 10 ug/ml. […] Parallel cultures of untreated cells were the negative control. […] After 48 h of treatment with the anti-cancer drugs, cell monolayers were washed in PBS, trypsinized and cell viability was measured using the trypan blue assay. The trypan blue exclusion assay allows for a direct identification and enumeration of live (unstained) and dead (blue) cells in the given population.
More in detail, we pre-treated both DnaKs with Telaprevir (25 μg/ml) before adding them to the culture of HCT116 cells. After 3 h of incubation the complex was added to the culture. After 24 h the cells were treated with the anti-cancer drugs and then subjected to count with trypan blue as previously described. Parallel cultures of cells treated with the drugs and DnaKs not complexed with Telaprevir were used as control.
Experiment [5] has as its target Recombinant purified exogenous Mycoplasma fermentans DnaK-V5 protein (eM-DnaK) (Mycoplasma fermentans). The experiment is described as follows: SPR (BIAcore T100), eM-DnaK immobilized on CM5 chip (2274.9 RU), ARV-1502 as analyte.
In experiment [6] the target is Mycoplasma fermentans DnaK-V5, expressed inside cells (codon-optimized DnaK vector transfected into (Mycoplasma fermentans)). As to the kind of experiment: cell-based or functional assay.

Where two headings read alike, the source gives them in different places.

In the case of `O=c1[nH]cc(F)c(=O)[nH]1` [5FU, 5-Fluorouracil], the viability at 75 µM worked out at 55% in experiment [1]; 14% in the experiment on HCT116 cells [2] (read-out: cell viability, HCT116, drug alone (eF-DnaK experiment), Cisplatin 2 μM or 5FU 75 μM, % of untreated cells); 14% with HCT116 cells [2] (read-out: cell viability, HCT116, drug alone (eM-DnaK experiment), Cisplatin 25 μM or 5FU 75 μM, % of untreated cells); 17% with HCT116 cells [2] (read-out: cell viability, HCT116, drug in the presence of eF-DnaK (10 ug/ml), Cisplatin 2 μM or 5FU 75 μM); 16% in the experiment with HCT116 cells [2] (read-out: cell viability, HCT116, drug in the presence of eM-DnaK (10 ug/ml), Cisplatin 25 μM or 5FU 75 μM); 31% in the experiment on AGS cells (read-out: cell viability, AGS, drug alone (eF-DnaK experiment), Cisplatin 2 μM or 5FU 75 μM, 48 h, % of untreated cells). Further, the viability at 75 µM in the experiment on AGS cells (read-out: cell viability, AGS, drug alone (eM-DnaK experiment), Cisplatin 25 μM or 5FU 75 μM, 48 h, % of untreated cells) is 15%; in the experiment with AGS cells (read-out: cell viability, AGS, drug in the presence of eF-DnaK (10 ug/ml), Cisplatin 2 μM or 5FU 75 μM, 48 h) it was 42%; with AGS cells (read-out: cell viability, AGS, drug in the presence of eM-DnaK (10 ug/ml), Cisplatin 25 μM or 5FU 75 μM, 48 h), 33%. Besides, the “effect of Mycoplasma infection on drug activity (cell viability)” value in experiment [3] is reported as “resistance to these anti-cancer drugs”.
Regarding `COc1ccc(C2=N[C@@H](c3ccc(Cl)cc3)[C@@H](c3ccc(Cl)cc3)N2C(=O)N2CCNC(=O)C2)c(OC(C)C)c1` [Nutlin, Nutlin-3], the “effect of Mycoplasma infection on drug activity (cell viability)” value in experiment [3] is on record as “resistance to these anti-cancer drugs”.
`CCC[C@H](NC(=O)[C@@H]1[C@H]2CCC[C@H]2CN1C(=O)[C@@H](NC(=O)[C@@H](NC(=O)c1cnccn1)C1CCCCC1)C(C)(C)C)C(=O)C(=O)NC1CC1` [Telaprevir, (3S,3aS,6aR)-2-[(2S)-2-[[(2S)-2-cyclohexyl-2-(pyrazine-2-carbonylamino)acetyl]amino]-3,3-dimethylbutanoyl]-N-[(3S)-1-(cyclopropylamino)-1,2-dioxohexan-3-yl]-3,3a,4,5,6,6a-hexahydro-1H-cyclopenta[c]pyrrole-3-carboxamide]: the “DnaK binding and ATPase activity” value at M. tuberculosis DnaK was “bind to M. tuberculosis DnaK substrate-binding domain and to reduce its ATPase activity”. Also, in the experiment on HCT116 cells [4] (HCT116, cisplatin in the presence of eM-DnaK or eF-DnaK pre-treated with Telaprevir (25 μg/ml)), the “restoration of cisplatin anti-cancer activity” value was “restoration of the original anti-cancer activity”.
Consider `COc1cc(C(=O)NS(=O)(=O)c2ccccc2C)ccc1Cc1cn(C)c2ccc(NC(=O)OC3CCCC3)cc12` [Zafirlukast, zafirlukast], for which the “restoration of cisplatin anticancer activity” value in the experiment on HCT116 cells [4] (HCT116, cisplatin in the presence of DnaK from M. fermentans and F. nucleatum (FIG. 9)) is given as “restores anticancer activity of cisplatin”.
For `N.N.[Cl][Pt][Cl]` [cisplatin], in the experiment with HCT116 cells [4] (HCT116, cisplatin in the presence of eM-DnaK or eF-DnaK), the “blunting of the anti-cancer effect of the drug” value is reported as 40-50%.
Regarding ARV-1502 (peptide), the Kd in experiment [5] was determined as 1900 nM. Besides, the cell viability of DnaK-expressing primary murine cancer cells, 5FU plus ARV-1502 in experiment [6] was 40%.

For orientation: Kd means a measure of binding affinity in units of concentration.

The record behind these values is patent publication US20250281456A1, “METHODS OF TREATING CANCER BY INHIBITING BACTERIAL DNAK TO RESTORE ACTIVITIES OF ANTICANCER DRUGS” (University of Maryland, Baltimore, priority 2022, published 2025).
